Measurements taken from US9034866B2 (Genentech, Inc., priority 2012, dated 2015).
pIC50: −log10 of the molar value.

Target: nuclear factor-kappa B (NF-kB)-inducing kinase (NIK) (Homo sapiens (Human), UniProt Q99558)
Assay: NIK Enzyme Inhibition Assay (Transcreener ADP fluorescence polarization)
Type: biochemical
Settings: purified NIK 0.2-1 nM, 10 uM ATP, Morrison's quadratic equation; read-out: NIK ADP-FP (Ki uM)
Procedure, shortened: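 Baculovirus/insect-cell-expressed NIK (0.2-1 nM) incubated with compounds 1-3.5 h at 10 uM ATP. Buffer: 50 mM HEPES pH 7.2, 10 mM MgCl2, 2 mM DTT, 1% DMSO. ADP detected by Transcreener fluorescence polarization (ADP antibody, AlexaFluor 633 tracer) after EDTA quench.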

Chain of nuclear factor-kappa B (NF-kB)-inducing kinase (NIK) (Q99558 whole entry): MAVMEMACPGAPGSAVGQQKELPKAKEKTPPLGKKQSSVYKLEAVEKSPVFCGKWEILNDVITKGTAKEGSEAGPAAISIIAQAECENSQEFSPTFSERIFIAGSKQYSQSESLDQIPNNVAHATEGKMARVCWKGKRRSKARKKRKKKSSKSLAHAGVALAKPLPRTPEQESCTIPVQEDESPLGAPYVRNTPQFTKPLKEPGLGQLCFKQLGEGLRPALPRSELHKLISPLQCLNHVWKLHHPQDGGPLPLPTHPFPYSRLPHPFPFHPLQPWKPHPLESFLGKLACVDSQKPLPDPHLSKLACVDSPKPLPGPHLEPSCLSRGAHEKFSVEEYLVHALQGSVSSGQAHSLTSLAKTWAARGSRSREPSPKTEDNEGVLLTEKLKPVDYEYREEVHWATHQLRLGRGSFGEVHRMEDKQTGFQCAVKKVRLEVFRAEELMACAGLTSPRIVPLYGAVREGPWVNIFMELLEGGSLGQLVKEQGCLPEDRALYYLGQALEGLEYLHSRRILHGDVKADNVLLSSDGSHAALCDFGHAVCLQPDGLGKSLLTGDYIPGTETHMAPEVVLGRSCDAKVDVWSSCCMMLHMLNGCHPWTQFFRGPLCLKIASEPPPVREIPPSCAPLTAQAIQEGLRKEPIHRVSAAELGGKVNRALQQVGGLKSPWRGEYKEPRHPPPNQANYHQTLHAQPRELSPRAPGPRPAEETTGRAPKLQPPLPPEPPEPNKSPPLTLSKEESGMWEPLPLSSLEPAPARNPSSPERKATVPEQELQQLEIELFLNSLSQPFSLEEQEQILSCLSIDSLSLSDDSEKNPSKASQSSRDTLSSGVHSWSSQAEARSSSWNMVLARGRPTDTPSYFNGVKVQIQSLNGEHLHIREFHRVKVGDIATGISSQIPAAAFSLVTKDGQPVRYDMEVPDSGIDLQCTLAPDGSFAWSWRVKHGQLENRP

Structure (SMILES)	Ki
CC(C)(O)C#Cc1cc2c(cc1F)C1CC(C1)n1c-2nc(C(N)=O)c1Cc1ccccc1Cl (racemic)	0.0021 µM
Cc1nc([C@](C)(O)C#Cc2ccc3c(c2)-c2nc(C(N)=O)cn2C2CC3C2)no1	0.003 µM
Cc1nc([C@](C)(O)C#Cc2ccc3c(c2)-c2nc(C(N)=O)c(C(O)c4ccnn4C)n2C2CC3C2)no1 (some centres unmarked)	0.0029 µM
COCCNCc1c(C(N)=O)nc2n1C1CC(C1)c1cc(F)c(C#CC(C)(C)O)cc1-2 (racemic)	0.056 µM
CNC(=O)c1c(C(N)=O)nc2n1CCOc1cc(F)c(C#C[C@@](C)(O)c3noc(C)n3)cc1-2 [Example 97, 8-fluoro-9-[(R)-3-hydroxy-3-(5-methyl-[1,2,4]oxadiazol-3-yl)-but-1-ynyl]-4,5-dihydro-6-oxa-1,3a-diaza-ben-zo[e]azulene-2,3-dicarboxylic acid 2-amide 3-methylamide]	0.007 µM
CC(O)(C#Cc1cc2c(cc1F)OCCn1cc(C(N)=O)nc1-2)c1ccncn1 (centres unmarked)	> 5 µM
CC(O)(C#Cc1cc2c(cc1F)OCCn1cc(C(N)=O)nc1-2)c1ncccc1F (centres unmarked) [Example 252]	0.025 µM
CC(O)(C#Cc1ccc2c(c1)-c1nc(C(N)=O)cn1C1CC2C1)CO (centres unmarked) [Example 181, 10-(3,4-dihydroxy-3-methyl-but-1-ynyl)-5,6,7,12-tetrahydro-5,7-methanoben-zo[c]imidazo[1,2-a]azepine-2-carboxamide]	0.036 µM
CC(O)(C#Cc1cc2c(cc1F)C1CC(C1)n1cc(C(N)=O)nc1-2)CO (centres unmarked)	0.014 µM
CC(C)(O)C#Cc1cc2c(cc1F)OCCn1c-2nc(C(N)=O)c1Cc1ccccc1 [Example 24, 3-benzyl-8-fluoro-9-(3-hydroxy-3-meth-yl-but-1-ynyl)-4,5-dihydro-6-oxa-1,3a-diaza-benzo[e]azulene-2-carboxylic acid amide]	0.011 µM
CC(O)(C#Cc1cc2c(cc1F)C1CC(C1)n1c-2nc(C(N)=O)c1-c1nc(C2CC2)n[nH]1)CO (centres unmarked)	0.0065 µM
Cc1nc(C(C)(O)C#Cc2cc3c(cc2Cl)OCCn2cc(C(N)=O)nc2-3)no1 (racemic) [Example 231]	> 5 µM
CC(O)(C#Cc1cc2c(cc1F)OCCn1c-2nc(C(N)=O)c1C1CC1)c1ccccn1 (centres unmarked)	0.037 µM
COCC(C)(O)C#Cc1cc2c(cc1F)C1CC(C1)n1c-2nc(C(N)=O)c1C1CC1 (racemic)	0.014 µM
CN1CCN(Cc2c(C(N)=O)nc3n2C2CC(C2)c2cc(F)c(C#CC(C)(C)O)cc2-3)CC1 (racemic)	0.12 µM
CC(C)(O)C#Cc1cc2c(cc1F)OCCn1c-2nc(C(N)=O)c1C(O)c1cc(F)cc(F)c1 (racemic) [Example 161]	0.0072 µM
COCC(C)(O)C#Cc1cc2c(cc1F)OCCn1c-2nc(C(N)=O)c1-c1nc(C2CC2)n[nH]1 (centres unmarked) [Example 213]	0.009 µM
CC(C)(O)C#Cc1cc2c(cc1F)OCCn1c-2nc(C(N)=O)c1Cc1ccccc1F [Example 25, 8-fluoro-3-(2-fluoro-benzyl)-9-(3-hydro-xy-3-methyl-but-1-ynyl)-4,5-dihydro-6-oxa-1,3a-diaza-benzol[e]azulene-2-car-boxylic acid amide]	0.012 µM
CC(C)(O)C#Cc1ccc2c(c1)-c1nc(C(N)=O)cn1C1CC2C1 [Example 179, 10-(3-hydroxy-3-methyl-but-1-ynyl)-5,6,7,12-tetrahydro-5,7-methanobenzo[c]imi-dazo[1,2-a]azepine-2-carboxamide]	0.022 µM

Second part, the molecule after the results:

Ki	Structure (SMILES)
0.155 µM	CC(O)(C#Cc1cc2c(cc1F)OCCn1cc(C(N)=O)nc1-2)C(=O)N1CC(F)(F)C1 (racemic) [Example 156]
> 5 µM	CC(C)(C#Cc1cc2c(cc1F)OCCn1cc(C(N)=O)nc1-2)CO (racemic)
0.001 µM	CN1CC[C@@](O)(C#Cc2ccc3c(c2)-n2nc(C(N)=O)c(CO)c2CCO3)C1=O [Example 720, (R)-9-((3-hydroxy-1-methyl-2-oxopyrro-lidin-3-yl)ethynyl)-3-(hydroxymethyl)-4,5-dihydrobenzo[b]pyrazolo[1,5-d][1,4]oxazepine-2-carboxamide]
0.094 µM	CC(C)(O)C#Cc1ccc2c(c1)-c1nc(C(N)=O)sc1C(C)(O)CO2 (centres unmarked) [Example 21, 4-hydroxy-9-(3-hydroxy-3-methyl-but-1-ynyl)-4-methyl-4,5-dihydro-6-oxa-3-thia-1-aza-benzo[e]azulene-2-carboxylic acid amide]
0.028 µM	Cc1nnc(C(C)(O)C#Cc2ccc3c(c2)-c2nc(C(N)=O)cn2CCO3)o1 (centres unmarked)
0.008 µM	Cc1cc([C@](C)(O)C#Cc2ccc3c(c2)-n2nc(C(N)=O)cc2C2(CCC2)CO3)no1 [Example 716, (R)-9-(3-hydroxy-3-(5-methylisoxazol-3-yl)but-1-yn-1-yl)-5H-spiro[benzo[b]py-razolo[1,5-d][1,4]oxazepine-4,1′-cyclo-butane]-2-carboxamide]
0.771 µM	CC(O)(C#Cc1ccc2c(c1)-c1nc(C(N)=O)cn1CCO2)CO (centres unmarked) [Example 20]
> 5 µM	CC(C)(C#Cc1ccc2c(c1)-c1nc(C(N)=O)cn1CCO2)CO [Example 171]
0.003 µM	CC(C)(O)C#Cc1cc2c(cc1F)OCCn1c-2nc(C(N)=O)c1-c1cc[nH]n1 [Example 35, 8-fluoro-9-(3-hydroxy-3-methyl-but-1-ynyl)-3-(1H-pyrazol-3-yl)-4,5-dihydro-6-oxa-1,3a-diaza-benzo[e]azulene-2-car-boxylic acid amide]
0.098 µM	CC(O)(C#Cc1cc2c(cc1F)OCCn1c-2nc(C(N)=O)c1C1CC1)CO (centres unmarked)
0.00078 µM	CN1CC[C@@](O)(C#Cc2ccc3c(c2)-c2nc(C(N)=O)c(C(F)F)n2C2CC3C2)C1=O [Example 664, 3-(difluoromethyl)-10-[2-[(3R)-3-hy-droxy-1-methyl-2-oxo-pyrrolidin-3-yl]ethy-nyl]-5,6,7,12-tetrahydro-5,7-methano-benzo[c]imidazo[1,2-a]azepine-2-carboxamide]
0.0029 µM	CN1CCCC(O)(C#Cc2ccc3c(c2)-c2nc(C(N)=O)sc2CCO3)C1=O (centres unmarked)
> 1.2 µM	CN1CC[C@](O)(C#Cc2ccc3c(c2)-c2nc(C(N)=O)c(C4CN(C(=O)C5CC5)C4)n2C2CC3C2)C1=O (racemic)
0.004 µM	CN1CCC(O)(C#Cc2ccc3c(c2)-c2nc(C(N)=O)cn2CCO3)C1=O (centres unmarked)

Test system: REL-A (p65) nuclear translocation in HeLa cells
Assay: REL-A nuclear translocation assay (classical NF-kB signaling), high content imaging
Type: cell-based
Settings: Homo sapiens, HeLa, compounds 4.5 hours, then 10 ng/mL TNF-α for 30 minutes, read-out: REL-A HeLa Transloc Assay (IC50)
Experimental: (2) A second set of cell assay are used to define the selectivity of NIK inhibitors toward inhibition of classical vs. non-classical NF-kB signaling and rely on quantification of the nuclear translocation of p52 (NF-kB2) and REL-A (p65) using high content cellular imaging. For the p52 (non-classical NF-kB signaling) nuclear translocation assay, HeLa cells are treated with different concentrations of compounds (0.2% DMSO final) in medium containing 10% fetal bovine serum and then stimulated with 100 ng/mL, of an anti-lymphotoxin beta receptor antibody (R&D Systems) for 5 hours. In the REL-A nuclear translocation assay, HeLa cells are incubated with compounds (0.2% DMSO final) for 4.5 hours in medium containing 10% fetal bovine serum before stimulating them with 10 ng/mL tumor necrosis factor (TNF)-α (R&D Systems) for 30 minutes. Cells are fixed with 4% paraformaldehyde, permeabilized by adding 0.1% Triton X-100 in phosphate buffered saline, and then are incubated with either 2 ug/mL anti-p52 antibody (Millipore) or 400 ng/mL anti-REL-A (p65) antibody (Santa Cruz Biotechnology). Finally, the cells are incubated with an Alexa488-labeled secondary antibody (Invitrogen) and DRAQ5 DNA stain (Biostatus). Imaging is carried out using an Opera reader (Perkin Elmer) and data are analyzed with the aid of Acapella software (Perkin Elmer). The p52 or REL-A translocation into the nucleus is quantified by the ratio of the nuclear to cytoplasmic signal intensity. […] The compounds in listed in Table 1 have the corresponding inhibitory value (IC50 in micromolar) for NIK p52 Translocation Assay as set forth in Table 2.
The compounds in listed in Table 1 has the corresponding inhibitory value (IC50 in micromolar) for NIK RelA Translocation Assay as set forth in Table 2.

Structure (SMILES)	pIC50
Cc1cc([C@@](C)(O)C#Cc2ccc3c(c2)-n2nc(C(N)=O)cc2[C@H](C)CO3)no1 (racemic) [Example 513]	< 4.70
Cc1cc([C@@](C)(O)C#Cc2ccc3c(c2)-n2nc(C(N)=O)cc2[C@@H](C)CO3)no1 [Example 519]	< 4.70

Continued, values first:

pIC50	Structure (SMILES)
< 4.70	CN1CC[C@@](O)(C#Cc2ccc3c(c2)-c2nc(C(N)=O)sc2[C@](O)(CF)CO3)C1=O [Example 465]
< 4.70	CN1CC[C@@](O)(C#Cc2ccc3c(c2)-n2nc(C(N)=O)cc2[C@H](F)CO3)C1=O
4.70	Cc1cc([C@](C)(O)C#Cc2cc3c(cc2F)OC[C@H](N(C)C)c2sc(C(N)=O)nc2-3)no1 (single isomer, unassigned) [Example 257]
< 4.70	Cc1nc([C@](C)(O)C#Cc2ccc3c(c2)-c2nc(C(N)=O)sc2[C@](C)(F)CO3)no1 [Example 469]
4.70	Cc1cc([C@](C)(O)C#Cc2cc3c(cc2F)OC[C@@H](N(C)C)c2sc(C(N)=O)nc2-3)no1 [Example 254]
< 4.70	C[C@@H]1COc2ccc(C#C[C@]3(O)CCCN(C)C3=O)cc2-c2nc(C(N)=O)sc21 [Example 493, 10-[2-[(3R)-3-hydroxy-1-methyl-2-oxo-pyrrolidin-3-yl]ethynyl]-N3-methyl-5,6,7,12-tetrahydro-5,7-methanobenzo[c]imidazo[1,2-a]azepine-2,3-dicarboxamide]
< 4.70	Cc1nc([C@](C)(O)C#Cc2ccc3c(c2)-c2nc(C(N)=O)sc2[C@H](F)CO3)no1 [Example 464]
< 4.70	Cc1nc([C@](C)(O)C#Cc2ccc3c(c2)-c2nc(C(N)=O)sc2[C@@H](C)CO3)no1 (racemic)
< 4.70	Cc1nc([C@](C)(O)C#Cc2ccc3c(c2)-c2nc(C(N)=O)sc2[C@@](C)(F)CO3)no1
< 4.70	C[C@H]1COc2ccc(C#C[C@]3(O)CCCN(C)C3=O)cc2-c2nc(C(N)=O)sc21 (racemic) [Example 501]
< 4.70	Cc1nc([C@](C)(O)C#Cc2ccc3c(c2)-c2nc(C(N)=O)sc2[C@@H](F)CO3)no1

Same assay, conditions: Homo sapiens, compounds 4.5 hours, then 10 ng/mL TNF-α for 30 minutes, read-out: REL-A HeLa Transloc Assay (IC50)

Structure (SMILES)	pIC50
CNC(=O)c1c(C(N)=O)nc2n1CCOc1cc(F)c(C#CC(C)(O)COC)cc1-2 (centres unmarked) [Example 108]	4.70
